# Reference: patent publication US12357598B2, “Treatment of neurodevelopmental disorders” (THE REGENTS OF THE UNIVERSITY OF CALIFORNIA, priority 2018, dated 2025)
# Legend:
# sEH = assay: Western blot of sEH in brain regions of juvenile offspring after MIA; type: in vivo, mouse
# Protocol: Administration of poly(I:C) into pregnant mice. The schedule of poly(I:C) treatment was performed as reported previously (13,36-39). The pregnant mice were injected intraperitoneally (i.p.) for six consecutive days from E12 to E17 with poly(I:C) (5.0 mg/kg/day, Sigma-Aldrich Co. Ltd., St. Louis, MO, USA) dissolved in physiological saline, or an equivalent volume (5 ml/kg) of saline. The male offspring were separated from their mothers at wearing (P21), and mice were caged each three-five in the groups in clear polycarbonate cage (22.5×33.8×14.0 cm). Mice were housed under controlled temperatures and 12-hour light/dark cycles (lights on between 07:00-19:00 h), with ad libitum food and water.
# Collection of brain samples and oxylipin profiling. […]
# Western blot analysis. […] 50 μg of protein were measured using the DC protein assay kit (Bio-Rad), and incubated for 5 min at 95° C., with an equal volume of 125 mM Tris-HCl, pH6.8, 20% glycerol, 0.1% bromophenol blue, 10% β-mercaptoethanol, 4% sodium dodecyl sulfate, and subjected to sodium dodecyl sulfate polyacrylamide gel electrophoresis, using 7.5% or AnyKD mini-gels (Mini-PROTEAN® TGX™ Precast Gel; Bio-Rad, CA, USA). […] After final three washes with TBST, bands were detected using enhanced chemiluminescence (ECL) prime Western Blotting Detection system (GE Healthcare Bioscience). […]
# GAD67 = GAD67 immunohistochemistry in mPFC, offspring after MIA; type: in vivo, mouse; conditions: adult offspring of poly(I:C)-treated mice vs saline-treated group
# Protocol: Immunohistochemistry. Immunohistochemistry of PV was performed as reported previously (37,39,59,60). Mice were anesthetized with 5% isoflurane and sodium pentobarbital (50 mg/kg), and perfused transcardially with 10 mL of physiological saline, followed by 40 mL of ice-cold 4% paraformaldehyde in 0.1M phosphate buffer (pH 7.4). Brains were removed from the skulls and post fixed overnight at 4° C. in the same fixative. For the immunohistochemical analysis, 50 μm-thick serial, coronal sections of brain tissue were cut in ice-cold 0.01M phosphate buffered saline (pH 7.5) using a vibrating blade microtome (VT1000s, Leica Microsystems, Tokyo, Japan). Free-floating sections were treated with 0.3% H2O2 in 50 mM Tris-HCl saline (TBS) for 30 min and were blocked in TBS containing 0.2% Triton X-100 (TBST) and 1.5% normal serum for 1 h at room temperature. […] The sections were imaged, and the staining intensity of PV (or GADO immunoreactivity in the inflalimbic (IL) and prelimbic (PrL) regions of mPFC was analyzed using a light micro-scope equipped with a CCD camera (Olympus IX70, Tokyo, Japan) and the SCION IMAGE software package. Images of sections within mPFC region were captured using a 100× objective with a Keyence BZ-X710 microscope (Keyence Corporation, Osaka, Japan).
substance,measurement,setting,value
polyriboinosinic-polyribocytidilic acid [Poly(I:C)],"sEH protein in striatum and hippocampus (CA1, CA3, DG)",sEH; poly(I:C) 5 mg/kg/day E12-E17,no changes
same,levels of sEH protein in the PFC,"sEH; poly(I:C) 5 mg/kg/day E12-E17, vs saline-treated mice",significantly higher
same,GAD67-IR in the PrL and IL of mPFC,GAD67,significantly lower
